Source: patent US6706740B2, “Fungicidal heterocyclic aromatic amides and their compositions, methods of use and preparation” (Dow AgroSciences LLC, priority 1999, dated 2004)
Like-named read-outs stand apart in the source and are kept apart here.

Assays:
[1] = system: Rhizoctonia solani (RHIZSO); assay: microbe, parasite or virus in culture; assay type: cell-based; details: Rhizoctonia solani, read-out: RHIZSO in vitro Growth Inhibition
Ustilago maydis (USTIMA) = assay: microbe, parasite or virus in culture; assay type: cell-based; details: Mycosarcoma maydis, read-out: USTIMA in vitro Growth Inhibition
Septoria tritici—SEPTTR = assay: Leaf Blotch of Wheat, in vivo whole plant, 24 Hour Protectant; details: for pest or weed control at 100 ppm: Zymoseptoria tritici, 24 h, control of fungal infection vs untreated plants, read-out: SEPTTR in vivo 1 Day Protectant
[2] = system: Mycosphaerella graminicola (Septoria tritici—SEPTTR); assay: In vitro fungal growth inhibition, Mycosphaerella graminicola (SEPTTR); assay type: cell-based; details: Zymoseptoria tritici, read-out: SEPTTR in vitro Growth Inhibition
[3] = system: Leptosphaeria nodorum—LEPTNO; assay: Glume Blotch of Wheat, in vivo whole plant, 24 Hour Protectant; details: for pest or weed control at 100 ppm: Leptosphaeria, read-out: LEPTNO in vivo 1 Day Protectant
[4] = system: Phytophthora infestans (PHYTIN); assay: microbe, parasite or virus in culture; assay type: cell-based; details: Phytophthora infestans, read-out: PHYTIN in vitro Growth Inhibition
Erysiphe graminis—ERYSGT = assay: Powdery Mildew of Wheat, in vivo whole plant, 24 Hour Protectant; details: for pest or weed control at 100 ppm: Erysiphe, read-out: ERYSGT in vivo 1 Day Protectant
[5] = system: Stagonospora nodorum (Leptosphaeria nodorum—LEPTNO); assay: In vitro fungal growth inhibition, Stagonospora nodorum (LEPTNO); assay type: cell-based; details: Leptosphaeria, read-out: LEPTNO in vitro Growth Inhibition
[6] = system: Puccinia recondita—PUCCRT; assay: Brown Rust of Wheat, in vivo whole plant, 24 Hour Protectant; details: for pest or weed control at 100 ppm: Puccinia, read-out: PUCCRT in vivo 1 Day Protectant
[7] = system: Phytophthora infestans—PHYTIN; assay: whole plant or invertebrate; assay type: in vivo; details: Phytophthora, in Solanum lycopersicum, 24 h, read-out: PHYTIN in vivo 1 Day Protectant
[8] = system: Magnaporthe grisea (Pyricularia oryzae—PYRIOR); assay: microbe, parasite or virus in culture; assay type: cell-based; details: Pyricularia oryzae, read-out: PYRIOR in vitro Growth Inhibition
[9] = 100 ppm spray, 24 hour protectant, wheat
[10] = 100 ppm spray, 24 hour protectant, wheat, control of fungal infection vs untreated plants
[11] = 100 ppm spray, wheat, 24 hour protectant
[12] = 100 ppm spray, wheat, 24 hour protectant, control of fungal infection vs untreated plants
[13] = wheat plants sprayed at 100 ppm, inoculated after 24 hours
[14] = wheat plants sprayed at 100 ppm, inoculated after 24 hours, control of fungal infection vs untreated plants
[15] = 100 ppm spray, wheat, 24 hour protectant, % control of fungal infection vs untreated plants

Structure (SMILES)	inhibition at 25 ppm [1] [%]	inhibition at 25 ppm (Ustilago maydis (USTIMA)) [%]	inhibition at 25 ppm [4] [%]	melting point [°C]	pest or weed control at 100 ppm [7] [%]	inhibition at 25 ppm [8] [%]	inhibition at 25 ppm ([2]; 25 ppm in growth medium) [%]	inhibition at 25 ppm ([5]; 25 ppm in growth medium) [%]	pest or weed control at 100 ppm (Septoria tritici—SEPTTR; [13]) [%]	inhibition at 25 ppm ([2]; 25 ppm in the growth medium) [%]	pest or weed control at 100 ppm [3, 14] [%]	pest or weed control at 100 ppm (Erysiphe graminis—ERYSGT; [14]) [%]	inhibition at 25 ppm ([5]; 25 ppm in the growth medium) [%]	pest or weed control at 100 ppm [6, 14] [%]	other results
Br.COc1ccnc(C(=O)NC2C[C@@H](Cc3ccccc3)O[C@@H](C)C2)c1O (stereo partly drawn) [Compound 311]	< 80	< 80	< 80	156 to 158	< 25	< 80									SEPTTR in vivo 1 Day Protectant (Septoria tritici—SEPTTR; in vivo): + +; inhibition at 25 ppm [2]: < 80%; pest or weed control at 100 ppm ([3]; 24 h): 25 to 74%; pest or weed control at 100 ppm (Erysiphe graminis—ERYSGT; 24 h): < 25%; inhibition at 25 ppm [5]: < 80%; pest or weed control at 100 ppm ([6]; 24 h): 25 to 74%
COc1cccc(CNC(=O)c2ncccc2O)c1 [Compound 225]	< 80	< 80	> 80	41 to 43	< 25	< 80	< 80	< 80							pest or weed control at 100 ppm (Septoria tritici—SEPTTR; [9]): < 25%; pest or weed control at 100 ppm [3, 10]: < 25%; pest or weed control at 100 ppm (Erysiphe graminis—ERYSGT; [10]): < 25%; pest or weed control at 100 ppm [6, 10]: < 25%
COc1ccnc(C(=O)N[C@H]2COC(=O)[C@H](CC3CCCC3)[C@@H](OC(=O)C(C)C)[C@H](C)OC2=O)c1O [Compound 402]	< 80	< 80	< 80	182 to 184	< 25	< 80	< 80	> 80							pest or weed control at 100 ppm (Septoria tritici—SEPTTR; [11]): 25 to 74%; LEPTNO in vivo 1 Day Protectant [3, 12]: + +; ERYSGT in vivo 1 Day Protectant (Erysiphe graminis—ERYSGT; [12]): + +; pest or weed control at 100 ppm [6, 12]: 25 to 74%
CC1(C)CC(NC(=O)c2nsnc2O)CC(C)(C)C1 [Compound 552]	> 80	< 80	> 80	96 to 102	25 to 74	> 80			< 25	> 80	< 25	25 to 74	> 80	< 25	
COc1ccnc(C(=O)NC2CC(C)(C)C(OC(=O)c3cccc(Cl)n3)C(C)(C)C2)c1O (stereo not drawn) [Compound 269]	< 80	< 80	< 80	55 to 65	< 25	< 80	< 80	< 80							pest or weed control at 100 ppm (Septoria tritici—SEPTTR; [9]): 25 to 74%; pest or weed control at 100 ppm [3, 10]: < 25%; pest or weed control at 100 ppm (Erysiphe graminis—ERYSGT; [10]): < 25%; pest or weed control at 100 ppm [6, 10]: 25 to 74%
COc1cc(NC(=O)c2ncccc2O)cc(OC)c1 [Compound 216]	< 80	< 80	< 80	127 to 129	< 25	> 80	< 80	< 80							pest or weed control at 100 ppm (Septoria tritici—SEPTTR; [9]): < 25%; pest or weed control at 100 ppm [3, 10]: < 25%; pest or weed control at 100 ppm (Erysiphe graminis—ERYSGT; [10]): < 25%; pest or weed control at 100 ppm [6, 10]: < 25%
COc1ccnc(C(=O)Nc2ccc(Oc3ccc(C(F)(F)F)cn3)cc2)c1O [Compound 462]	< 80	< 80	< 80	141 to 143	< 25	> 80			25 to 74	> 80	25 to 74	< 25	< 80	25 to 74	
COc1ccnc(C(=O)Nc2ccc(Oc3cccc(C(F)(F)F)n3)cc2)c1O [Compound 463]	< 80	< 80	< 80	140 to 141.5	< 25	< 80			25 to 74	< 80	< 25	< 25	< 80	< 25	
O=C(NCCc1ccc(Cl)cc1)c1cccnc1O [Compound 518]	< 80	< 80	< 80	219 to 221	25 to 74	< 80			< 25	< 80	< 25	< 25	< 80	< 25	
COCCC(=O)Oc1c(OC)ccnc1C(=O)N[C@H]1COC(=O)[C@H](Cc2ccccc2)[C@@H](OC(=O)C(C)(C)C)[C@H](C)OC1=O [Compound 703]	< 80	< 80	< 80	144 to 145	< 25	< 80	< 80	> 80							SEPTTR in vivo 1 Day Protectant (Septoria tritici—SEPTTR; [15]): + +; LEPTNO in vivo 1 Day Protectant [3, 15]: + +; ERYSGT in vivo 1 Day Protectant (Erysiphe graminis—ERYSGT; [15]): + +; PUCCRT in vivo 1 Day Protectant [6, 15]: + +
CC1(C)CC(NC(=O)c2nc3ccccc3nc2O)CC(C)(C)C1 [Compound 563]	< 80	< 80	< 80	> 300	< 25	< 80			< 25	< 80	25 to 74	< 25	< 80	< 25	
COc1ccnc(C(=O)Nc2ccc(Oc3cc(C(F)(F)F)nc(C(F)(F)F)c3)cc2)c1O [Compound 466]	< 80	< 80	< 80	198 to 200	< 25	< 80			25 to 74	< 80	25 to 74	< 25	> 80	< 25	
COc1ccnc(C(=O)N[C@H]2COC(=O)[C@H](Cc3ccccc3)[C@@H](OCC(C)C)[C@H](C)OC2=O)c1O [Compound 384]	< 80	< 80	< 80	172 to 174	< 25	> 80	> 80	> 80							pest or weed control at 100 ppm (Septoria tritici—SEPTTR; [11]): 25 to 74%; LEPTNO in vivo 1 Day Protectant [3, 12]: + +; ERYSGT in vivo 1 Day Protectant (Erysiphe graminis—ERYSGT; [12]): + +; pest or weed control at 100 ppm [6, 12]: 25 to 74%
COc1ccnc(C(=O)Nc2cccc(NC(=O)c3ccc(C(F)(F)F)cc3)c2)c1O [Compound 454]	< 80	< 80	< 80	240 to 242	< 25	< 80	< 80	< 80							pest or weed control at 100 ppm (Septoria tritici—SEPTTR; [11]): 25 to 74%; pest or weed control at 100 ppm [3, 12]: 25 to 74%; pest or weed control at 100 ppm (Erysiphe graminis—ERYSGT; [12]): < 25%; pest or weed control at 100 ppm [6, 12]: < 25%
